US5919771A, “Urea and thiourea derivatives of glycopeptides” (Eli Lilly and Company, priority 1998, dated 1999)

How the values were obtained:
Assay type in all cases: cell-based
[1] = tested on: Staphylococcus aureus 489; assay: MIC, standard broth micro-dilution assay, SA 489
Experimental: (§1) The antibacterial efficacy of the present compounds is illustrated by Table II. The minimal inhibitory concentrations (MICs) were determined using a standard broth micro-dilution assay.

[2] = tested on: Staphylococcus aureus 447; assay: MIC, standard broth micro-dilution assay, SA 447
Experimental: as §1

[3] = tested on: Streptococcus pneumoniae P1; assay: MIC, standard broth micro-dilution assay, SPN P1
Experimental: as §1

[4] = tested on: Enterococcus faecium and faecalis (RESISTANT); conditions: geometric mean of 4-6 isolates
Experimental: as §1

[5] = tested on: Enterococcus faecium and faecalis (SENSITIVE); conditions: geometric mean of 4-6 isolates
Experimental: as §1

[6] = tested on: Staphylococcus epidermidis 270; assay: MIC, standard broth micro-dilution assay, SE 270
Experimental: as §1

[7] = tested on: Staphylococcus haemolyticus 415; assay: MIC, standard broth micro-dilution assay, SH 415
Experimental: as §1

[8] = tested on: Staphylococcus haemolyticus 105; assay: MIC, standard broth micro-dilution assay, SH 105
Experimental: as §1

[9] = tested on: Staphylococcus aureus 446; assay: MIC, standard broth micro-dilution assay, SA 446
Experimental: as §1

[10] = tested on: Streptococcus pyogenes C203; assay: MIC, standard broth micro-dilution assay, SPY C203
Experimental: as §1

Structure (SMILES)	Minimal Inhibitory Concentration (MIC) SA 489 [1]	Minimal Inhibitory Concentration (MIC) SA 447 [2]	Minimal Inhibitory Concentration (MIC) SPN P1 [3]	Minimal Inhibitory Concentration (MIC) RESISTANT [4]	Minimal Inhibitory Concentration (MIC) SENSITIVE [5]	Minimal Inhibitory Concentration (MIC) SE 270 [6]	Minimal Inhibitory Concentration (MIC) SH 415 [7]	Minimal Inhibitory Concentration (MIC) SH 105 [8]	Minimal Inhibitory Concentration (MIC) SA 446 [9]	Minimal Inhibitory Concentration (MIC) SPY C203 [10]
CC(C)CC(C(=O)NC1C(=O)NC(CC(N)=O)C(=O)NC2C(=O)NC3C(=O)NC(C(=O)NC(C(=O)O)c4cc(O)cc(O)c4-c4cc3ccc4O)C(OC3CC(C)(N)C(O)C(C)O3)c3ccc(c(Cl)c3)Oc3cc2cc(c3OC2OC(CO)C(O)C(O)C2OC2CC(C)(N)C(O)C(C)O2)Oc2ccc(cc2Cl)C1O)N(C)C(=S)Nc1cccc2ccccc12 (stereo not shown) [Example 5, N^LEU -(1-NAPHTHYLTHIOCARBAMOYL)A82846B]	> 64	8	1	> 128	9.5	32	> 64	64	8	0.5
CC(C)CC(C(=O)NC1C(=O)NC(CC(N)=O)C(=O)NC2C(=O)NC3C(=O)NC(C(=O)NC(C(=O)O)c4cc(O)cc(O)c4-c4cc3ccc4O)C(OC3CC(C)(N)C(O)C(C)O3)c3ccc(c(Cl)c3)Oc3cc2cc(c3OC2OC(CO)C(O)C(O)C2OC2CC(C)(NCc3ccc(Cl)cc3)C(O)C(C)O2)Oc2ccc(cc2Cl)C1O)N(C)C(=S)Nc1cccc2ccccc12 (stereo not shown) [Example 6, N^LEU -(1-NAPHTHYLTHIOCARBAMOYL)-N^DISACC -(p-CHLOROBENZYL)A82846B]	16	4	≤ 0.06	128	5	64	8	4	2	≤ 0.06
CC(C)CC(C(=O)NC1C(=O)NC(CC(N)=O)C(=O)NC2C(=O)NC3C(=O)NC(C(=O)NC(C(=O)O)c4cc(O)cc(O)c4-c4cc3ccc4O)C(OC3CC(C)(N)C(O)C(C)O3)c3ccc(c(Cl)c3)Oc3cc2cc(c3OC2OC(CO)C(O)C(O)C2OC2CC(C)(NCc3ccc(Oc4ccccc4)cc3)C(O)C(C)O2)Oc2ccc(cc2Cl)C1O)N(C)C(=S)Nc1cccc2ccccc12 (stereo not shown) [Example 7, N^LEU -(1-NAPHTHYLTHIOCARBAMOYL)-N^DISACC -(p-PHENOXYBENZYL)A82846B]	2	1	≤ 0.06	19	3	0.5	2	4	4	0.25
CC(C)CC(C(=O)NC1C(=O)NC(CC(N)=O)C(=O)NC2C(=O)NC3C(=O)NC(C(=O)NC(C(=O)O)c4cc(O)cc(O)c4-c4cc3ccc4O)C(OC3CC(C)(N)C(O)C(C)O3)c3ccc(c(Cl)c3)Oc3cc2cc(c3OC2OC(CO)C(O)C(O)C2OC2CC(C)(NCc3ccc(Cl)cc3)C(O)C(C)O2)Oc2ccc(cc2Cl)C1O)N(C)C(=S)Nc1ccc(Cl)cc1 (stereo not shown) [Example 12, N^LEU -((p-CHLOROPHENYL)-THIOCARBAMOYL)-N^DISACC -(p-CHLOROBENZYL)A82846B]	1	1	≤ 0.06	128	3.5	1	4	2	4	≤ 0.06
COc1ccc(NC(=S)N(C)C(CC(C)C)C(=O)NC2C(=O)NC(CC(N)=O)C(=O)NC3C(=O)NC4C(=O)NC(C(=O)NC(C(=O)O)c5cc(O)cc(O)c5-c5cc4ccc5O)C(OC4CC(C)(N)C(O)C(C)O4)c4ccc(c(Cl)c4)Oc4cc3cc(c4OC3OC(CO)C(O)C(O)C3OC3CC(C)(NCc4ccc(Cl)cc4)C(O)C(C)O3)Oc3ccc(cc3Cl)C2O)cc1 (stereo not shown) [Example 13, N^LEU -((p-METHOXYPHENYL)-THIOCARBAMOYL)-N^DISACC -(p-CHLOROBENZYL)A82846B]	2	2	≤ 0.06	> 128	3.5	2	8	4	4	≤ 0.06
CC(C)CC(C(=O)NC1C(=O)NC(CC(N)=O)C(=O)NC2C(=O)NC3C(=O)NC(C(=O)NC(C(=O)O)c4cc(O)cc(O)c4-c4cc3ccc4O)C(OC3CC(C)(N)C(O)C(C)O3)c3ccc(c(Cl)c3)Oc3cc2cc(c3OC2OC(CO)C(O)C(O)C2OC2CC(C)(N)C(O)C(C)O2)Oc2ccc(cc2Cl)C1O)N(C)C(=S)Nc1ccc([N+](=O)[O-])cc1 (stereo not shown) [Example 14, N^LEU -((p-NITROPHENYL)-THIOCARBAMOYL)A82846B]	2	4	0.25	> 128	3.5	4	32	16	2	≤ 0.06
CC(C)CC(C(=O)NC1C(=O)NC(CC(N)=O)C(=O)NC2C(=O)NC3C(=O)NC(C(=O)NC(C(=O)O)c4cc(O)cc(O)c4-c4cc3ccc4O)C(OC3CC(C)(N)C(O)C(C)O3)c3ccc(c(Cl)c3)Oc3cc2cc(c3OC2OC(CO)C(O)C(O)C2OC2CC(C)(N)C(O)C(C)O2)Oc2ccc(cc2Cl)C1O)N(C)C(=S)Nc1ccc(N(C)C)cc1 (stereo not shown) [Example 15, N^LEU -((p-(DIMETHYLAMINO)-PHENYL)THIOCARBAMOYL)A82846B]	4	16	0.25	> 128	24	16	> 64	> 64	8	0.25
CC(C)CC(C(=O)NC1C(=O)NC(CC(N)=O)C(=O)NC2C(=O)NC3C(=O)NC(C(=O)NC(C(=O)O)c4cc(O)cc(O)c4-c4cc3ccc4O)C(OC3CC(C)(N)C(O)C(C)O3)c3ccc(c(Cl)c3)Oc3cc2cc(c3OC2OC(CO)C(O)C(O)C2OC2CC(C)(N)C(O)C(C)O2)Oc2ccc(cc2Cl)C1O)N(C)C(=S)Nc1ccc(OCc2ccccc2)cc1 (stereo not shown) [Example 16, N^LEU -((p-(BENZYLOXY)PHENYL)-THIOCARBAMOYL)A82846B]	0.5	1	0.125	> 128	7	4	64	8	1	≤ 0.06
CCCCc1ccc(NC(=S)N(C)C(CC(C)C)C(=O)NC2C(=O)NC(CC(N)=O)C(=O)NC3C(=O)NC4C(=O)NC(C(=O)NC(C(=O)O)c5cc(O)cc(O)c5-c5cc4ccc5O)C(OC4CC(C)(N)C(O)C(C)O4)c4ccc(c(Cl)c4)Oc4cc3cc(c4OC3OC(CO)C(O)C(O)C3OC3CC(C)(N)C(O)C(C)O3)Oc3ccc(cc3Cl)C2O)cc1 (stereo not shown) [Example 17, N^LEU -((p-n-BUTYLPHENYL)-THIOCARBAMOYL)A82846B]	1	1	≤ 0.06	> 128	6.1	2	32	4	2	0.25
CCCCc1ccc(NC(=S)N(C)C(CC(C)C)C(=O)NC2C(=O)NC(CC(N)=O)C(=O)NC3C(=O)NC4C(=O)NC(C(=O)NC(C(=O)O)c5cc(O)cc(O)c5-c5cc4ccc5O)C(OC4CC(C)(N)C(O)C(C)O4)c4ccc(c(Cl)c4)Oc4cc3cc(c4OC3OC(CO)C(O)C(O)C3OC3CC(C)(NCc4ccc(Oc5ccccc5)cc4)C(O)C(C)O3)Oc3ccc(cc3Cl)C2O)cc1 (stereo not shown) [Example 18, N^LEU -((p-n-BUTYLPHENYL)-THIOCARBAMOYL)-N^DISACC -(p-PHENOXYBENZYL)A82846B]	2	2	2	4.7	1.7	2	2	2	2	0.25
